Measurements: US9242984B2, “Pyrazolyl derivatives as Syk inhibitors” (Merck Sharp & Dohme Corp., priority 2012, dated 2016)
Like-named read-outs stand apart in the source and are kept apart here.

Target: T1, recombinant human Syk (GST-hSyk fusion protein) (Homo sapiens, UniProt P43405)
T1 construct: purchased Carna Biosciences 08-176
Assay: Homogeneous Time-Resolved Fluorescence (HTRF) assay for the recombinant human Syk enzyme
Type: biochemical
Conditions: 10-dose titration, 25 μM ATP
How it was run: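 IC50 came from a four-parameter fit over ten doses, 10 μM to 0.508 nM, with HTRF read-out (Eu-anti-pTyr antibody, SA-APC, EDTA stop, 30 min). The enzyme, 5 pM GST-hSyk, met compound for 10 min, then phosphorylated 250 nM biotin-peptide with 25 μM ATP and 5 mM Mg for 45 min at room temperature, pH 7.5.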

[1] = IC50 class, read-out: rhSYK Activity

Structure (SMILES)	IC50 [1] [nM]	IC50 (read-out: rhSYK IC50) [nM]
Cc1cc(Nc2nccc(C(F)(F)F)n2)cc(-c2cnn(C(C)C3(O)CCOCC3)c2)c1 (centres unmarked) [Example 12.14, 4-{1-[4-(3-methyl-5-{[4-(trifluoromethyl)pyrimidin-2-yl]amino}phenyl)-1H-pyrazol-1-yl]ethyl}-tetrahydro-2H-pyran-4-ol]	≤ 100	
COc1nc(Nc2cc(C)cc(-c3cnn(CC4CNC(=O)O4)c3)c2)ncc1Cl (centres unmarked) [Example 2.28, 5-[(4-{3-[(5-chloro-4-methoxypyrimidin-2-yl)amino]-5-methylphenyl}-1H-pyrazol-1-yl)methyl]-1,3-oxazolidin-2-one]	≤ 100	
Cc1cc(Nc2nccc(C(F)(F)F)n2)cc(-c2cnn(C[C@H](O)CC#N)c2)c1 [Example 3.2, (3R)-3-hydroxy-4-[4-(3-methyl-5-{[4-(trifluoromethyl)-pyrimidin-2-yl]amino}phenyl)-1H-pyrazol-1-yl]-butanenitrile]	≤ 100	
Cc1cc(Nc2nccc(C)n2)cc(-c2cnn(CC3(C)CNC(=O)O3)c2)c1 (centres unmarked) [Example 3.122, 5-methyl-5-[(4-{3-methyl-5-[(4-methylpyrimidin-2-yl)amino]phenyl}-1H-pyrazol-1-yl)methyl]-1,3-oxazolidin-2-one]	≤ 100	
Cc1cc(Nc2nccc(C(C)(F)F)n2)cc(-c2cnn(CC3OC(=O)NC3(C)C)c2)c1 (centres unmarked) [Example 3.104, 5-{[4-(3-{[4-(1,1-difluoroethyl)pyrimidin-2-yl]amino}-5-methylphenyl)-1H-pyrazol-1-yl]methyl}-4,4-dimethyl-1,3-oxazolidin-2-one]	≤ 100	
CCOC(=O)CCn1cc(-c2cc(C)cc(Nc3nccc(C4CC4)n3)c2)cn1 [Example 2.41, ethyl 3-(4-{3-[(4-cyclopropylpyrimidin-2-yl)amino]-5-methylphenyl}-1H-pyrazol-1-yl)propanoate]	< 1000	
Cc1cc(Nc2cc(C(F)(F)F)ccn2)nc(-c2cnn(C(=O)OC(C)(C)C)c2)c1 [Example 1.11, tert-butyl 4-(4-methyl-6-{[4-(trifluoromethyl)-pyridin-2-yl]amino}-pyridin-2-yl)-1H-pyrazole-1-carboxylate]	≤ 100	
Cc1cc(Nc2nccc(C(F)(F)F)n2)cc(-n2cc(CCC(=O)O)cn2)c1 [Example 19.1, 3-(1-(3-methyl-5-((4-(trifluoromethyl)pyrimidin-2-yl)amino)phenyl)-1H-pyrazol-4-yl)propanoic acid]	≤ 100	61
CCOC(=O)CCn1cc(-c2cc(C)cc(Nc3cc(C4CC4)ccn3)n2)cn1 [Example 1.17, ethyl 3-(4-{6-[(4-cyclopropylpyridin-2-yl)amino]-4-methylpyridin-2-yl}-1H-pyrazol-1-yl)propanoate]	≤ 100	
Cc1cc(Nc2nccc(C(F)F)n2)cc(-c2cnn(CC(O)(CO)C(F)(F)F)c2)c1 (single isomer, unassigned) [Example 32.2, (S or R)-2-((4-(3-((4-(difluoromethyl)pyrimidin-2-yl)amino)-5-methylphenyl)-1H-pyrazol-1-yl)methyl)-3,3,3-trifluoropropane-1,2-diol]	≤ 100	3.3
O=C(O)C1CCC(n2cc(-c3cc(Cl)cc(Nc4cc(C(F)(F)F)ccn4)n3)cn2)CC1 (centres unmarked) [Example 1.54, 4-[4-(4-chloro-6-{[4-(trifluoromethyl)pyridin-2-yl]amino}pyridin-2-yl)-1H-pyrazol-1-yl]cyclohexanecarboxylic acid]	≤ 100	
Cc1cc(Nc2nccc(C(F)F)n2)cc(-c2cnn(C(C)C3CNC(=O)C3)c2)c1 (centres unmarked) [Example 2.68, 4-{1-[4-(3-{[4-(difluoromethyl)pyrimidin-2-yl]amino}-5-methylphenyl)-1H-pyrazol-1-yl]ethyl}pyrrolidin-2-one]	≤ 100	
Cc1cc(Nc2nccc(C(F)(F)F)n2)cc(-c2cnn(CC3OC(=O)NC3C)c2)c1 (single isomer, unassigned) [Example 23.2, 4-methyl-5-{[4-(3-methyl-5-{[4-(trifluoromethyl)pyrimidin-2-yl]amino}phenyl)-1H-pyrazol-1-yl]methyl}-1,3-oxazolidin-2-one]	≤ 100	
Cc1cc(Nc2ncccn2)cc(-c2cnn(CC3CNC(=O)O3)c2)c1 (centres unmarked) [Example 3.115, 5-({4-[3-methyl-5-(pyrimidin-2-ylamino)phenyl]-1H-pyrazol-1-yl}methyl)-1,3-oxazolidin-2-one]	≤ 100	
Cc1cc(Nc2nccc(C(F)F)n2)cc(-c2cnn(CC3OC(=O)NC3C)c2)c1 (single isomer, unassigned) [Example 23.13, 5-{[4-(3-{[4-(difluoromethyl)pyrimidin-2-yl]amino}-5-methylphenyl)-1H-pyrazol-1-yl]methyl}-4-methyl-1,3-oxazolidin-2-one]	≤ 100	
Cc1cc(Nc2nccc(C(F)(F)F)n2)cc(-c2cnn(CC3(O)CCOC(C)(C)C3)c2)c1 (centres unmarked) [Example 12.9, 2,2-dimethyl-4-{[4-(3-methyl-5-{[4-(trifluoro-methyl)pyrimidin-2-yl]amino}phenyl)-1H-pyrazol-1-yl]methyl}-tetrahydro-2H-pyran-4-ol]	≤ 100	

Structure (SMILES)	IC50 [1] [nM]	IC50 (read-out: rhSYK IC50) [nM]
Cc1cc(Nc2nccc(C(F)(F)F)n2)cc(-c2cnn(C[C@@H](O)CC#N)c2)c1 [Example 3.47, (3S)-3-hydroxy-4-[4-(3-methyl-5-{[4-(trifluoromethyl)pyrimidin-2-yl]amino}-phenyl)-1H-pyrazol-1-yl]butanenitrile]	≤ 100	
CCC(C)(O)Cn1cc(-c2cc(C)cc(Nc3nccc(C(F)F)n3)c2)cn1 (centres unmarked) [Example 3.113, 1-[4-(3-{[4-(difluoromethyl)pyrimidin-2-yl]amino}-5-methylphenyl)-1H-pyrazol-1-yl]-2-methylbutan-2-ol]	≤ 100	
COc1ccnc(Nc2cc(C)cc(-c3cnn(C[C@H](O)C(=O)O)c3)c2)n1 [Example 11.2, (2S)-2-hydroxy-3-(4-{3-[(4-methoxy-pyrimidin-2-yl)amino]-5-methylphenyl}-1H-pyrazol-1-yl)-propanoic acid]	≤ 100	
Cc1cc(Nc2nccc(C(F)F)n2)cc(-c2cnn(CC(O)C(C)(C)C)c2)c1 (centres unmarked) [Example 5.30, 1-[4-(3-{[4-(difluoromethyl)pyrimidin-2-yl]amino}-5-methylphenyl)-1H-pyrazol-1-yl]-3,3-dimethylbutan-2-ol]	≤ 100	
Cc1cc(Nc2nccc(C(F)F)n2)cc(-c2cnn(CC3OC(=O)NC34CC4)c2)c1 (centres unmarked) [Example 3.92, 7-{[4-(3-{[4-(difluoromethyl)pyrimidin-2-yl]amino}-5-methylphenyl)-1H-pyrazol-1-yl]methyl}-6-oxa-4-azaspiro[2.4]heptan-5-one]	≤ 100	
Cc1cc(Nc2nccc(C(F)(F)F)n2)cc(-c2cnn(Cc3nnc(C)o3)c2)c1 [Example 3.24, N-(3-methyl-5-{1-[(5-methyl-1,3,4-oxadiazol-2-yl)methyl]-1H-pyrazol-4-yl}phenyl)-4-(trifluoromethyl)pyrimidin-2-amine]	≤ 100	
Cc1ccnc(Nc2cccc(-c3cnn(CCC(=O)O)c3)n2)c1 [Example 1.18, 3-(4-{6-[(4-methylpyridin-2-yl)amino]pyridin-2-yl}-1H-pyrazol-1-yl)propanoic acid]	100 to 1000	
Cc1cc(Nc2nccc(OCCO)n2)cc(-c2cnn(CCC(N)=O)c2)c1 [Example 3.38, 3-[4-(3-{[4-(2-hydroxyethoxy)pyrimidin-2-yl]amino}-5-methylphenyl)-1H-pyrazol-1-yl]propanamide]	≤ 100	
CCOC(=O)CCc1cnn(-c2cc(C)cc(Nc3nccc(C4CC4)n3)c2)c1 [Example 19.4, Ethyl 3-(1-{3-[(4-cyclopropylpyrimidin-2-yl)amino]-5-methylphenyl}-1H-pyrazol-4-yl)propanoate]	100 to 1000	
Cc1cc(Nc2nccc(C(F)(F)F)n2)cc(-c2cnn(C3CCC(C(N)=O)CC3)c2)c1 (centres unmarked) [Example 8.18, 4-[4-(3-methyl-5-{[4-(trifluorometh-yl)pyrimidin-2-yl]amino}phenyl)-1H-pyrazol-1-yl]-cyclohexane-carboxamide]	≤ 100	
Cc1cc(Nc2nccc(C(F)(F)F)n2)cc(-c2cnn(C[C@@]3(O)C[C@@H](C)O[C@@H](C)C3)c2)c1 [Example 12.8, meso (2R,4S,6S)-2,6-dimethyl-4-{[4-(3-methyl-5-{[4-(trifluoro-methyl)pyrimidin-2-yl]amino}phenyl)-1H-pyrazol-1-yl]methyl}-tetrahydro-2H-pyran-4-ol]	≤ 100	
COc1nc(Nc2cc(C)cc(-c3cnn(CC4CNC(=O)O4)c3)c2)ncc1F (centres unmarked) [Example 2.30, 5-[(4-{3-[(5-fluoro-4-methoxypyrimidin-2-yl)amino]-5-methylphenyl}-1H-pyrazol-1-yl)methyl]-1,3-oxazolidin-2-one]	≤ 100	
Cc1cc(Nc2nccc(C(F)(F)F)n2)cc(-c2cnn(C[C@@H](O)C(=O)O)c2)c1 [Example 5.16, (2R)-2-hydroxy-3-[4-(3-methyl-5-{[4-(trifluoromethyl)-pyrimidin-2-yl]amino}phenyl)-1H-pyrazol-1-yl]propanoic acid]	≤ 100	
Cc1cc(Nc2nccc(C)n2)cc(-c2cnn(CCC(=O)O)c2)c1 [Example 2.44, 3-(4-{3-methyl-5-[(4-methylpyrimidin-2-yl)amino]phenyl}-1H-pyrazol-1-yl)propanoic acid]	≤ 100	
Cc1cc(Nc2nccc(OCCO)n2)cc(-c2cnn(C3CCC(C(N)=O)CC3)c2)c1 (centres unmarked) [Example 8.5, 4-[4-(3-{[4-(2-hydroxy-ethoxy)pyrimidin-2-yl]amino}-5-methylphenyl)-1H-pyrazol-1-yl]-cyclo-hexanecarboxamide]	≤ 100	
Cc1cc(Nc2nccc(C(F)F)n2)cc(-c2cnn(CC3OC(=O)NC3CO)c2)c1 (single isomer, unassigned) [Example 33.1, 5-{[4-(3-{[4-(difluoromethyl)pyrimidin-2-yl]amino}-5-methylphenyl)-1H-pyrazol-1-yl]methyl}-4-(hydroxymethyl)-1,3-oxazolidin-2-one]	≤ 100	1.6
